For test [1], the target named is T1, GABAB receptor (Rattus norvegicus, UniProt Q9Z0U4). Kind of test: biochemical.
The test system of the next test is Rat. Kind of test: subcutaneous Metrazol seizure threshold test (scMET). In kind it is in vivo. The conditions noted are these: 7 days IP, 20 mg/kg dose only, Metrazol 70 mg/kg. How it is done: Subcutaneous injection of the convulsant Metrazol produces clonic seizures in laboratory animals. […] Animals are pretreated with various doses of the test compound given by i.p. injection. At the previously determined TPE of the test compound, the dose of Metrazol which will induce convulsions in 97% of animals (CD97; 85 mg/kg mice) is injected into a loose fold of skin in the midline of the neck. The animals are placed in isolation cages to minimize stress (Swinyard et al, 1961) and observed for the next 30 minutes for the presence or absence of a seizure. An episode of clonic spasms, approximately 3-5 seconds, of the fore and/or hindlimbs, jaws, or vibrissae is taken as the endpoint.

Test [2] has as its target T1, GABAB receptor. The conditions noted are these: 100 μM, rat brain cortical homogenate.
Another test relates to cortical astrocytes. Kind of test: [3H]GABA uptake in cultured cortical astrocytes. In kind it is cell-based. The conditions noted are these: Mus musculus, Astrocyte. How it is done:
Cortical astrocytes were cultured essentially as previously described. Hertz L, Juurlink B H J, Hertz E, Fosmark H and Schousboe A. Preparation of Primary Cultures of Mouse (Rat) Astrocytes, in A Dissection and Tissue Culture Manual of the Nervous System (Shahar A, de Vellis J, Vernadakis A and Haber B eds) pp 105-108, Alan R. Liss, Inc., New York, 1989 The neopallium was removed from new born NMRI mice (Taconic, Denmark) and passed through an 80 μm nylon sieve and cultured in modified Dulbecco's modified Eagle's medium with fetal calf serum. The calf serum was lowered from 20% to 10% over three weeks, and finally the astrocytes were allowed to differentiate using 0.25 mM dibutyryl cyclic AMP during the last week of growth.
Cortical neurons were cultured essentially as previously described by removing the neopallium of 15-day old NMRI embryos by dissection followed by mild trypsination. Hertz E, Yu A C H, Hertz L, Juurlink B H J and Schousboe A. Preparation of Primary Cultures of Mouse Cortical Neurons, in A Dissection and Tissue Culture Manual of the Nervous System (Shahar A, de Vellis J, Vernadakis A and Haber B eds) pp 183-186, Alan R. Liss, Inc., New York, 198. […] Radioactivity was measured using Microscint™ 20 scintillation fluid (PerkinElmer) and a Packard TopCount microplate scintillation counter.

For test [3], the system named is GABA transporters in neurons, astrocytes, or mammalian cells recombinantly expressing human or mouse transporter subtypes. Put plainly: [3H]GABA uptake, all transporter systems. In kind it is cell-based. The conditions noted are these: 1 mM concentration. How it is done:
tsA201 cells were cultured in GlutaMAX-I DMEM supplemented with 10% fetal bovine serum, penicillin (100 U/ml), and streptomycin (100 μg/ml) at 37° C. in a humidified atmosphere of 95% air and 5% CO2. […] J. Biol. Chem. 2007, 282, 19331-19341. […] Quantification was performed by using Microscint™ 20 scintillation fluid (PerkinElmer) and a Packard TopCount microplate scintillation counter.
Cortical astrocytes were cultured essentially as previously described. Hertz L, Juurlink B H J, Hertz E, Fosmark H and Schousboe A. Preparation of Primary Cultures of Mouse (Rat) Astrocytes, in A Dissection and Tissue Culture Manual of the Nervous System (Shahar A, de Vellis J, Vernadakis A and Haber B eds) pp 105-108, Alan R. Liss, Inc., New York, 1989 The neopallium was removed from new born NMRI mice (Taconic, Denmark) and passed through an 80 μm nylon sieve and cultured in modified Dulbecco's modified Eagle's medium with fetal calf serum. […]
Cortical neurons were cultured essentially as previously described by removing the neopallium of 15-day old NMRI embryos by dissection followed by mild trypsination. […] Radioactivity was measured using Microscint™ 20 scintillation fluid (PerkinElmer) and a Packard TopCount microplate scintillation counter.

Another test deals with T2, human ρ1 GABAC receptors (Homo sapiens, UniProt P24046).
T2 construct: expressed in transfected cells; host or cells: Xenopus laevis oocytes injected with ρ1 mRNA
T2 sequence (P24046 21-479 limits assumed): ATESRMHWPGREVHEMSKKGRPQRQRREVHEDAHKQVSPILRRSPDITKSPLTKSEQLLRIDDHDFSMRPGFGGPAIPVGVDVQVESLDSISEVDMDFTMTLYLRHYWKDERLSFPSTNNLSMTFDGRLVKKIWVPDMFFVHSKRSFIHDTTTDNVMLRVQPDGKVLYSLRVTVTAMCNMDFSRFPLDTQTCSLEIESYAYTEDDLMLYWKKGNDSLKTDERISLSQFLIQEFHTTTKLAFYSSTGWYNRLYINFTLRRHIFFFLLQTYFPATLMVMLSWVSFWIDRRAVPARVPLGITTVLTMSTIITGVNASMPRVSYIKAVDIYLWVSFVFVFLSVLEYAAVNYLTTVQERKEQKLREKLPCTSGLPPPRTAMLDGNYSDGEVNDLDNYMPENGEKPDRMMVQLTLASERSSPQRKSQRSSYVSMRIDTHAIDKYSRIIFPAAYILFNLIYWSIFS
Kind of test: GABAC receptor two-electrode voltage clamp in Xenopus laevis oocytes. In kind it is cell-based. The procedure: Human ρ1 cDNA encapsulated in pcDNA1.1 was linearized with Not1. Linearized cDNA was transcribed to mRNA using the T7 “mMESSAGE mMACHINE” kit (Ambion Inc. Austin, Tex., USA) as previously described. […] Eur. J. Pharmacol. 2001, 430, 185-192. GABAC receptor activity assays were performed in oocytes harvested from Xenopus laevis (housed in the Department of Veterinary Science at the University of Sydney) and defolliculated. The oocytes were stored in ND96 solution (in mM) NaCl (96), KCl (2), MgCl2 (1), CaCl2 (1.8), HEPES (hemi-Na salt; 5) supplemented with sodium pyruvate (2.5), theophylline (0.5), and 50 μg/ml^−1 gentamycin for 2-5 days post-injection.
Electrophysiological methods were performed as previously described. Hertz L, Juurlink B H J, Hertz E, Fosmark H and Schousboe A. Preparation of Primary Cultures of Mouse (Rat) Astrocytes, in A Dissection and Tissue Culture Mnual of the Nervous System (Shahar A, de Vellis J, Vernadakis A and Haber B eds) pp 105-108, Alan R. Liss, Inc., New York, 1989 Stage V-VI oocytes were injected with 10 ng 50 nl^−1 of ρ1 mRNA and then stored at 16° C. Recordings of receptor activity were obtained for 2-5 days by a two-electrode voltage clamp by means of a Geneclamp 500 amplifier (Axon Instruments Inc., Foster City, Calif.), a MacLab 2e recorder (AD Instruments, Sydney, NSW), and Chart version 3.6.3 program. Oocytes were voltage clamped at −60 mV, and the preparation was continually perfused with ND96 solution at room temperature. […] Compound 2 (CPP-115) was tested on three oocytes from at least two harvests.
On the technique in general: Two-electrode voltage clamp holds a large cell at a set potential and records current.

Another test deals with Sprague-Dawley rats. Put plainly: μPET imaging of 11C-raclopride binding after cocaine.

T1 sequence (Q9Z0U4 17-960 limits assumed): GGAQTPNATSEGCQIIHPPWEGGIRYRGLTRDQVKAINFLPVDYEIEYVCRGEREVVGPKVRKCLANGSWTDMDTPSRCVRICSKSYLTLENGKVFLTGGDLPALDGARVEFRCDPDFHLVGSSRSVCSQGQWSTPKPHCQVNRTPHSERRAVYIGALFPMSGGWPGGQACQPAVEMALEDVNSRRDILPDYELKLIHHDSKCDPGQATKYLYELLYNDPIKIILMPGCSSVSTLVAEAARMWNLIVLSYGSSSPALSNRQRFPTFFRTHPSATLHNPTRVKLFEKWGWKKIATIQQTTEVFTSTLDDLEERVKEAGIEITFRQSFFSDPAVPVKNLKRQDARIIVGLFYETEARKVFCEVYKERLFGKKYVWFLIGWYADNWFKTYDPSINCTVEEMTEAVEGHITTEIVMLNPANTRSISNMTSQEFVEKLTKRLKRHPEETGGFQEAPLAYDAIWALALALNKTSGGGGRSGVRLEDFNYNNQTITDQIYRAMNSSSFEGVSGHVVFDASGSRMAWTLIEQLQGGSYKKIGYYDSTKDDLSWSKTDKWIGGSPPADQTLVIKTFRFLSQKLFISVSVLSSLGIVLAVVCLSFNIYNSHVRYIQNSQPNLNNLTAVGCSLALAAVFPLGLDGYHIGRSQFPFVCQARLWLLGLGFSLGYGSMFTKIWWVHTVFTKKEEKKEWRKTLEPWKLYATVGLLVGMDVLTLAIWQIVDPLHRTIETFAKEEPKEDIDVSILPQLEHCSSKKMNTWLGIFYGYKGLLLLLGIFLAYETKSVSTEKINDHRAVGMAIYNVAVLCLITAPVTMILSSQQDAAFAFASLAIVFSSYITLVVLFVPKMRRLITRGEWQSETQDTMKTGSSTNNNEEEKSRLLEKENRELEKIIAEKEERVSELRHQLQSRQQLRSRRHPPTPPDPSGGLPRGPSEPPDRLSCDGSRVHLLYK
T1 sequence (O88871 41-940 partner): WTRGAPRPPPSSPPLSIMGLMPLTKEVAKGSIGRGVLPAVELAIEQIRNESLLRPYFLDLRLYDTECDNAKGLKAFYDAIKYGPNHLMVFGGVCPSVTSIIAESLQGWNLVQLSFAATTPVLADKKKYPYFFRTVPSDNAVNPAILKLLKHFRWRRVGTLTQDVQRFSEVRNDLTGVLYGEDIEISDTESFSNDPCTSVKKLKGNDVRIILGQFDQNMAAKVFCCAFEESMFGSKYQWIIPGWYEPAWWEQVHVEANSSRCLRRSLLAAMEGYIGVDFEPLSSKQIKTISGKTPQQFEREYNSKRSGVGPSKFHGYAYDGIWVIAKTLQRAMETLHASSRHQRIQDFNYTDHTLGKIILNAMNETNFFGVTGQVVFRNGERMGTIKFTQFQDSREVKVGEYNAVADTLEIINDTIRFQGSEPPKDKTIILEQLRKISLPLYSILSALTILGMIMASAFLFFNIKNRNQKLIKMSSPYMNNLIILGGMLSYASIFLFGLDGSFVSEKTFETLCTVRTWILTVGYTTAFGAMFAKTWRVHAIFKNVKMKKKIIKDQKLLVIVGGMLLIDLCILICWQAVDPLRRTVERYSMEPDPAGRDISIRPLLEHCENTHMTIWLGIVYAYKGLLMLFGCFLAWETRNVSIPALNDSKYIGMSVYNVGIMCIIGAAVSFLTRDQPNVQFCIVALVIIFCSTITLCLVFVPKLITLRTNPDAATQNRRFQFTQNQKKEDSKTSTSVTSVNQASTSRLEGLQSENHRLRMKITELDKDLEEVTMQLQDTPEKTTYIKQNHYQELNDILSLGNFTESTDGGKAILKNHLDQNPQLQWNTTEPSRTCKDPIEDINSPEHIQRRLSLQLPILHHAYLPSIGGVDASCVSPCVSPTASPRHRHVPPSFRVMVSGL

On to `N[C@H]1C[C@@H](C(=O)O)CC1=C(F)F` [CPP-115], for which the “inhibition of radioligand binding at GABAA receptors” value in the test with GABAA receptor (100 μM, rat brain cortical homogenate) is reported as “no inhibition of binding was observed”. In addition, the IC50 (in general, the concentration needed to halve the response being measured) is above 100 µM on GABAA receptor (read-out: [3H]muscimol competition (GABAA receptor) IC50, 5 nM [3H]muscimol, 0 °C, 60 min); above 100 µM against GABAB receptor [1]; above 1000 µM in the test with cortical astrocytes. Also, the scMET protection entry in the test on Rat is on record as “No protection”. The “inhibition of radioligand binding at GABAB receptors” value at GABAB receptor [2] is listed as “no inhibition of binding was observed”. Moreover, in test [3], the “inhibitory activity at GABA transporters” value was “no inhibitory activity”. Also, the “effect as agonist or antagonist at ρ1 GABAC receptors” value on human ρ1 GABAC receptors (100 μM) is recorded as “no effect as an agonist or antagonist”. For the same compound, on human ρ1 GABAC receptors (100 μM alone, clamped at −60 mV), the “activation of current in oocytes” value was “did not activate a current”. Further, the “reduction of the GABA response on co-application” value on human ρ1 GABAC receptors (100 μM co-applied with GABA 1 μM, p>0.05, n=3) was “did not significantly reduce the GABA response”. Moreover, the “effective dose, times lower than the 300 mg/kg dose of vigabatrin” value in the test with Sprague-Dawley rats (0.5 mg/kg versus 300 mg/kg) was determined as 600 times. In addition, in the test with Sprague-Dawley rats (0.5 mg/kg, 2.5 h before cocaine 5.0 mg/kg i.v.), the “effect on cocaine-induced increases in synaptic dopamine” value was “complete blockade of cocaine-induced increases in synaptic dopamine”. Also, the “dose blocking cocaine-induced dopamine increase and CPP, times lower than vigabatrin” value in the test on Sprague-Dawley rats (μPET and CPP, summary statement) came out at 100 times.

For the origin of these results see patent US8969413B2.
